Measurements from patent US20100203021A1, “PROVISION OF NEW CARDIOMYOCYTE PROGENITOR CELLS AND CARDIOMYOCYTES DERIVED THEREFROM” (LEAD PHARMA CEL MODELS IP B.V., priority 2007, published 2010).

Key:
Assay type in all cases: cell-based, human
[1] = tested on: hCMPCs; test: Differentiation of hCMPCs into cardiomyocytes (5-azacytidine, ascorbic acid, TGFβ); RT-PCR, Western blot, α-actinin immunofluorescence
Description: For a cell type to be suitable for cardiomyocyte replacement therapies, it should not only be able to proliferate but also differentiate efficiently into cardiomyocytes. To study the capacity of the hCMPCs of the invention to differentiate into cardiomyocytes, cells were plated at 10^5 per cm^2 in differentiation medium containing ascorbic acid and treated with 5-azacytidine (which is a demethylating agent).
(§1) To determine whether CMPCs of the invention were capable of responding to TGFβ ligand we examined their ability to phosphorylate smad proteins. TGFβ exerts its effect by binding to a complex of type I and type II receptor and phosphorylating Smads^30. TGFβ phosphorylates Smad2 while BMP phosphorylates Smad1. […] To examine the effect of TGFβ on cardiomyocyte differentiation, hCMPCs were plated at 2×10^4 cells per cm^2 in differentiation medium, treated with 5-aza for 24 hours and cultured for up to 3 weeks in differentiation medium supplemented with TGFβ (1 ng/ml).
To induce differentiation, cells were treated with 5 μM 5′-azacytidine (Sigma) for 72 hours in differentiation medium (Iscove's Modified Dulbecco's Medium/HamsF12 (1:1) (Gibco)) supplemented with L-Glutamine (Gibco), 2% horse serum, non-essential amino acids, Insulin-Transferrin-Selenium supplement, and 10^−4 M Ascorbic Acid (Sigma)). After induction, the medium was changed every 3 days.
For TGFβ treatment, CMPCs were cultured in differentiation medium, stimulated with 5 μM 5′-azacytidine (Sigma) and 1 ng/ml TGFβ1 (Sigma) added 24 hours later. The medium was changed every 3 days.
RNA was isolated using of Trizol (Invitrogen, Breda, The Netherlands) and reverse transcribed using oligo-dT Superscript 3 (Invitrogen). The PCR reactions started with 2 min at 94° C. followed by 35 cycles of: 15 s at 94° C., 30 s at 55° C. and 45 s at 72° C. Products were analyzed on ethidium bromide-stained 1% agarose gel. β-tubulin or β-actin were used as RNA input control.
Coverslips with cultured cells were rinsed in serum free medium, fixed in methanol (−20° C.) or 4% paraformaldehyde, washed with PBS and permeabilized with 0.2% Triton X-100/PBS. Non-specific binding of antibodies was blocked with 2% bovine serum albumin (BSA). Incubation with primary antibodies was performed overnight in PBS/10% normal goat serum (NGS). Antibodies used recognized GATA-4 (Santa Cruz), Islets-1 (Hybridoma Bank), Cx40 (Chemicon), Cx43 (Zymed), Cx45 (kindly provided by Dr. T. H. Steinberg, Washington University, St. Louis, USA), α-actinin (Sigma), Troponin I (Chemicon) desmin (Sanbio), titin (Sigma), MLC2v (Alexis), β-MHC (kindly provided by Dr. A. F. M. Moorman, AMC Amsterdam, Netherlands), N-cadherin (Sigma) and ZO-1 (Zymed). Immunolabeling was performed using Texas Red (TR)- or fluorescein isothiocyanate (FITC)-conjugated secondary antibodies (Jackson Laboratories). All incubation steps were performed at room temperature and in between all incubation steps, cells were washed with PBS. Finally, coverslips were mounted in Vectashield (Vector Laboratories) and examined with a Nikon Optiphot-2 light microscope equipped for epifluorescence.
Western blot analysis was performed as described previously^35. Detection was by ECL (Amersham). […]

[2] = tested on: CMPC; test: In vitro angiogenesis assay: tube formation by CMPC on Matrigel/ECMatrix; conditions: CMPCs on Matrigel, addition of VEGF
From the text: We have also established differentiation of CMPCs of the invention into tubular vascular structures (angiogenesis) on Matrigel, said “tubular vascular structures” which are sometimes also denoted herein as “tubular structures” containing aligned endothelial cells encircled by smooth muscle cells. […] The formation of these newly formed capillary tubes can be visualised for example by staining α-SMA (a smooth muscle actin) on smooth muscle cells and/or PECAM-1 (platelet endothelial cell adhesion molecule-1, CD31) on endothelial cells (see also appended Example 8). Antibodies which can be used in this regard are exemplified in the following: SMA antibody: AB5694 from abcam, clone 1A4, Sigma, cat. Number: A2547, or Dako, cat. Number M08510. Endothelial cells: PECAM-1 clone 9G11 or CD34 clone Qbend/10 form Biogenex or CD31 from Sigma and ve-cadherin from Santa Cruz.
In this case the assay is set up in order to test the influence of diverse compounds (i.e. chemical compounds or miRNA etc.) on tube formation by CMPC (cardio mycocyte progenitor cells). In order for these cells to form tubes these cells have to differentiate into smooth muscle cells and endothelial cells.
The formation of these newly formed capillary tubes is visualised by staining α-SMA (α smooth muscle actin) on smooth muscle cells and PECAM-1 (platelet endothelial cell adhesion molecule-1, CD31) on endothelial cells. […]

[3] = tested on: Smad2; test: Western blot for TGFβ induced Smad2 phosphorylation in CMPCs; conditions: 1 ng/ml TGFβ, Western blot α-pSmad2
Description: as §1
(§2) FIG. 3: (A) Western blot analysis on protein samples isolated from CMPCs stimulated without or with 1 ng/ml TGFβ or 25 ng/ml BMP-6 and probed with α-pSmad1 or α-pSmad2. Asterisk indicates an non-specific band showing equal loading. B) Semi-quantitative RT-PCR on RNA isolated from CMPCs stimulated without or with 1 ng/ml TGFβ for the indicated days probed for the expression of the early cardiac transcription factors Nkx2.5 and Mef2C, the contractile proteins cardiac actin, cardiac Troponin I, desmin, ANP and MLC2v. β-actin was used as a control for equal RNA input. C) Western blot analysis on protein samples from CMPCs stimulated without or with 1 ng/ml TGF for the indicated days, probed for Nkx2.5 or α-actinin. […] Counterstaining of nuclei was performed using DAPI. Bar=50 μm. […]

[4] = tested on: Smad1; test: Western blot for BMP induced Smad1 phosphorylation in CMPCs; conditions: 25 ng/ml BMP-6, Western blot α-pSmad1
Description: as §1, §2

Nc1ncn([C@@H]2O[C@H](CO)[C@@H](O)[C@H]2O)c(=O)n1 [5-azacytidine, reference compound]
differentiation of hCMPCs into cardiomyocytes (beating areas) ([1]; hCMPCs 10^5 per cm^2, differentiation medium with ascorbic acid, three weeks after treatment): spontaneously beating areas were observed

VEGF
formation of capillary tubes [2]: can be induced

TGFβ: TGFβ1 (Sigma), 1 ng/ml, added to differentiation medium
Smad2 phosphorylation [3]: TGFβ induced Smad2 phosphorylation
expression of Nkx2.5 and α-actinin (Western blot) ([1]; CMPCs, 7 days of culture in the presence of TGFβ 1 ng/ml): increased dramatically
percentage of α-actinin positive cells ([1]; hCMPCs, 5-aza 24 hours, then TGFβ 1 ng/ml, immunofluorescent staining): ~100%
expression of cardiac genes Troponin-I, ANP, cardiac-actin and desmin (RT-PCR) ([1]; hCMPCs, 5-aza, TGFβ 1 ng/ml, undetectable in its absence): already observed 7 days after the initiation of differentiation
MLC2v expression (RT-PCR) ([1]; hCMPCs, 5-aza, TGFβ 1 ng/ml, without TGFβ only after 3 weeks): already present after two weeks

B1: BMP: bone morphogenetic protein; 25 ng/ml BMP-6 in FIG. 3A (protein, UniProt P22004 375-513, looked up)
Bone morphogenetic protein 6: SASSRRRQQSRNRSTQSQDVARVSSASDYNSSELKTACRKHELYVSFQDLGWQDWIIAPKGYAANYCDGECSFPLNAHMNATNHAIVQTLVHLMNPEYVPKPCCAPTKLNAISVLYFDDNSNVILKKYRNMVVRACGCH
Smad1 phosphorylation [4]: clear BMP induced Smad1 phosphorylation
